According to ChEMBL document CHEMBL1201862, “PubChem BioAssay data set” (2004):
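48-hour exposure; five concentrations; linearly interpolated endpoints. GI50 is the concentration that inhibits growth by half.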 Activity calls are given as the source filed them. Rule as the data show it: active = GI50 up to about 1.1 µM and inactive = higher.

How the values were obtained:
Assay in all cases: inhibition of tumour cell growth, NCI panel, 48 h
Hs-578T = test system: Hs-578T
NCI-H460 = test system: NCI-H460
BT-549 = test system: BT-549
KM12 = test system: KM12
MOLT-4 = test system: MOLT-4
NCI-H226 = test system: NCI-H226
COLO 205 = test system: COLO 205
NCI/ADR-RES = test system: NCI/ADR-RES
A498 = test system: A498
TK-10 = test system: TK-10
SF-295 = test system: SF-295
Malme-3M = test system: Malme-3M
OVCAR-4 = test system: OVCAR-4
786-0 = test system: 786-0
EKVX = test system: EKVX
SNB-75 = test system: SNB-75
MDA-MB-231 = test system: MDA-MB-231
CCRF-CEM = test system: CCRF-CEM
HOP-92 = test system: HOP-92
SF-539 = test system: SF-539
UACC-62 = test system: UACC-62
HCT-116 = test system: HCT-116
HOP-62 = test system: HOP-62
M14 = test system: M14
OVCAR-8 = test system: OVCAR-8
SK-OV-3 = test system: SK-OV-3
SW-620 = test system: SW-620
HCT-15 = test system: HCT-15
UACC-257 = test system: UACC-257
DU-145 = test system: DU-145
NCI-H522 = test system: NCI-H522
PC-3 = test system: PC-3
A549 = test system: A549
SNB-19 = test system: SNB-19
SK-MEL-5 = test system: SK-MEL-5
SK-MEL-2 = test system: SK-MEL-2
U-251 = test system: U-251
K562 = test system: K562
NCI-H23 = test system: NCI-H23
IGROV-1 = test system: IGROV-1
SF-268 = test system: SF-268
MCF7 = test system: MCF7
HL-60 = test system: HL-60
RXF 393 = test system: RXF 393
CAKI-1 = test system: CAKI-1
RPMI-8226 = test system: RPMI-8226
SN12C = test system: SN12C
MDA-N = test system: MDA-N
ACHN = test system: ACHN
OVCAR-3 = test system: OVCAR-3
UO-31 = test system: UO-31
HT-29 = test system: HT-29
SK-MEL-28 = test system: SK-MEL-28
OVCAR-5 = test system: OVCAR-5
T47D = test system: T47D
SR = test system: SR
LOX IMVI = test system: LOX IMVI

SMILES: Cc1ccc(/N=N/c2ccc(N)cc2C)c(S(N)(=O)=O)c1
- GI50 (Hs-578T): 63 µM (inactive)
- GI50 (NCI-H460): 49.3 µM (inactive)
- GI50 (BT-549): > 100 µM (inactive)
- GI50 (KM12): > 100 µM (inactive)
- GI50 (MOLT-4): 64 µM (inactive)
- GI50 (NCI-H226): > 100 µM (inactive)
- GI50 (COLO 205): 76.7 µM (inactive)
- GI50 (NCI/ADR-RES): 76.6 µM (inactive)
- GI50 (A498): > 100 µM (inactive)
- GI50 (TK-10): 48.9 µM (inactive)
- GI50 (SF-295): 56.1 µM (inactive)
- GI50 (Malme-3M): > 100 µM (inactive)
- GI50 (OVCAR-4): > 100 µM (inactive)
- GI50 (786-0): > 100 µM (inactive)
- GI50 (EKVX): 26.1 µM (inactive)
- GI50 (SNB-75): 61.9 µM (inactive)
- GI50 (MDA-MB-231): > 100 µM (inactive)
- GI50 (CCRF-CEM): 48.1 µM (inactive)
- GI50 (HOP-92): 32.1 µM (inactive)
- GI50 (SF-539): > 100 µM (inactive)
- GI50 (UACC-62): 88.9 µM (inactive)
- GI50 (HCT-116): 75.3 µM (inactive)
- GI50 (HOP-62): > 100 µM (inactive)
- GI50 (M14): > 100 µM (inactive)
- GI50 (OVCAR-8): 76.7 µM (inactive)
- GI50 (SK-OV-3): > 100 µM (inactive)
- GI50 (SW-620): > 100 µM (inactive)
- GI50 (HCT-15): 71.4 µM
- GI50 (UACC-257): 45.2 µM (inactive)
- GI50 (DU-145): > 100 µM (inactive)
- GI50 (NCI-H522): 36.4 µM (inactive)
- GI50 (PC-3): 89.7 µM (inactive)
- GI50 (A549): 50.5 µM (inactive)
- GI50 (SNB-19): > 100 µM (inactive)
- GI50 (SK-MEL-5): 77.6 µM (inactive)
- GI50 (SK-MEL-2): > 100 µM (inactive)
- GI50 (U-251): > 100 µM (inactive)
- GI50 (K562): 75.9 µM (inactive)
- GI50 (NCI-H23): > 100 µM (inactive)
- GI50 (IGROV-1): 77.3 µM (inactive)
- GI50 (SF-268): > 100 µM (inactive)
- GI50 (MCF7): 61.9 µM (inactive)
- GI50 (HL-60): 29.6 µM (inactive)
- GI50 (RXF 393): > 100 µM (inactive)
- GI50 (CAKI-1): > 100 µM (inactive)
- GI50 (RPMI-8226): 70.8 µM (inactive)
- GI50 (SN12C): > 100 µM (inactive)
- GI50 (MDA-N): 71.9 µM (inactive)
- GI50 (ACHN): 90.6 µM (inactive)
- GI50 (OVCAR-3): 50.4 µM (inactive)
- GI50 (UO-31): 63 µM (inactive)
- GI50 (HT-29): 82.4 µM (inactive)
- GI50 (SK-MEL-28): > 100 µM (inactive)
- GI50 (OVCAR-5): > 100 µM (inactive)
- GI50 (T47D): 48.8 µM (inactive)
- GI50 (SR): 0.478 µM (active)
- GI50 (LOX IMVI): 78.5 µM (inactive)
